The values below come from US20250171426A1, “PYRIMIDINEDIONE-BASED COMPOUNDS AS AXL, C-MET, AND MER INHIBITORS AND METHODS OF USE THEREOF” (CMG Pharmaceutical Co., Ltd., priority 2022, published 2025).

SMILES strings stand for the structures.

Holding throughout (format): biochemical
Holding throughout (settings): 10 μM ATP, 60 min, ADP-GLO luminescence
For orientation: In ADP-Glo the light output rises with the ADP produced.

One test deals with T1, MER (Homo sapiens, UniProt Q12866).
T1 sequence (Q12866 21-999): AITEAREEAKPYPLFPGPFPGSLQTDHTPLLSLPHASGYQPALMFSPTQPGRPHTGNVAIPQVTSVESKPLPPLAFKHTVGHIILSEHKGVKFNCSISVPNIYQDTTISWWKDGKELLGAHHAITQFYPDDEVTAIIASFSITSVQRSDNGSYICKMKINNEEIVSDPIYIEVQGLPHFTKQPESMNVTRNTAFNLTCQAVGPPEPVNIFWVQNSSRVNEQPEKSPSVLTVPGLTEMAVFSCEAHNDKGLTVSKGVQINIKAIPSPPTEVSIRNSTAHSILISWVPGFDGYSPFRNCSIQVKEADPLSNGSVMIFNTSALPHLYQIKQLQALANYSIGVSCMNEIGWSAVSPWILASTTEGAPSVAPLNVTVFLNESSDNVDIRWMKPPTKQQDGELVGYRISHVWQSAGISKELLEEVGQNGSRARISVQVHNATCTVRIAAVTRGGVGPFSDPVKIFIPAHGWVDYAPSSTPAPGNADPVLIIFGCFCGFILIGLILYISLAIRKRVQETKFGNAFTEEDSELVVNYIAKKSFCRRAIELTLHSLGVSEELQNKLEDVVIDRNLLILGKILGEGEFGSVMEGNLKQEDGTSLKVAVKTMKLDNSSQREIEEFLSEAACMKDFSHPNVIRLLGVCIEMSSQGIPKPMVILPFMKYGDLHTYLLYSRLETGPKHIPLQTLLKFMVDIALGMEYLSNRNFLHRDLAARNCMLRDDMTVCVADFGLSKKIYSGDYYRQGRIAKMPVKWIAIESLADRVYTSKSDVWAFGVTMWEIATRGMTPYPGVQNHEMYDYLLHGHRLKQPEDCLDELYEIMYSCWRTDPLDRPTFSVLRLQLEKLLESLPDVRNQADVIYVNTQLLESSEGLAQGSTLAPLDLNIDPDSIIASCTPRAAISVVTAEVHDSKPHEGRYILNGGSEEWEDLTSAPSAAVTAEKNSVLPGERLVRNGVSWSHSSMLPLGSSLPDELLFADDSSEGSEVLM
Kind of test: Enzymatic assay (ADP-Glo kinase reaction), MER. The method, then:
(§1) All the kinase reactions were performed in 5 μL using tyrosine kinase buffer with 0.2 μg/μL poly (Glu4, Tyr1) substrate, 10 μM ATP, serial dilution of the inhibitor, and incubated at room temperature for 60 min. After the indicated incubation times, 5 μL ADP-GLO™ reagent (Promega, Madison, WI) was added to the reactions and the plate was incubated at room temperature for 40 min. Then, 10 μL of kinase detection reagent was added and after an incubation time of 40 min, luminescence was recorded and IC50 values were determined (Table 1). All 384-well assay plates were read using a GLOMAX™ Discover Microplate Luminometer from Promega (Madison, WI). To plot, analyze the data and calculate all kinase reaction biochemical values, both Microsoft Excel and Prism from GraphPad 7 Software (La Jolla, CA) were used.
as §1, with “3).” for “1).”

The target of a further test is T2, AXL (Homo sapiens, UniProt P30530).
T2 sequence (P30530 26-894): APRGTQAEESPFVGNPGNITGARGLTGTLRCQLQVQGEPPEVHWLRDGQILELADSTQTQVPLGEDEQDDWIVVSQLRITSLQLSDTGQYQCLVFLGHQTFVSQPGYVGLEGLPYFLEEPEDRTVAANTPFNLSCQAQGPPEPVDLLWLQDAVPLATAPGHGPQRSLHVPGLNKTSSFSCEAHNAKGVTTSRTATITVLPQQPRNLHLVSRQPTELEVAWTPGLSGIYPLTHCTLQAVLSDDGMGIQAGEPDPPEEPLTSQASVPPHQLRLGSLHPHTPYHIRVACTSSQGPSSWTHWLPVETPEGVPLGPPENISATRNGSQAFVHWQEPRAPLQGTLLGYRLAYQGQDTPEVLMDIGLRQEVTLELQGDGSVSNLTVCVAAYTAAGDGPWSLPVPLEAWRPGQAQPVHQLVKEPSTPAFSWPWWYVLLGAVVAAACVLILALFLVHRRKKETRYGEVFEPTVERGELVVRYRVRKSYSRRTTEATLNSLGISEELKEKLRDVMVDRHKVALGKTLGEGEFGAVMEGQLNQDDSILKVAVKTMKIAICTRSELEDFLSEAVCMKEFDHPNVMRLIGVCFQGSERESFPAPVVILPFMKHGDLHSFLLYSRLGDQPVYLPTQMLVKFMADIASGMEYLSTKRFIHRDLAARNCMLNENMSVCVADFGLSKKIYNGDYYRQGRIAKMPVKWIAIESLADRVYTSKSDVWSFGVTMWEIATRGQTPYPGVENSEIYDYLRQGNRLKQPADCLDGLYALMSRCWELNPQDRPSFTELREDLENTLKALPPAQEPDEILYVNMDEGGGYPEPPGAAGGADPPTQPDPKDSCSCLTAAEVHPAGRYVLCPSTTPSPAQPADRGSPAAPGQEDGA
Kind of test: Enzymatic assay (ADP-Glo kinase reaction), AXL. The method, then: as §1, with “Then, 10 μL of kinase detection reagent was added and after an incubation time of 40 min, luminescence was recorded and IC50 values were determined (Table 1).” left out

In the next test the target is c-MET (Homo sapiens, UniProt P08581). Kind of test: Enzymatic assay (ADP-Glo kinase reaction), c-MET. The method, then: as §1, with “Then, 10 μL of kinase detection reagent was added and after an incubation time of 40 min, luminescence was recorded and IC50 values were determined (Table 1).” left out
c-MET, sequence (P08581 25-1390): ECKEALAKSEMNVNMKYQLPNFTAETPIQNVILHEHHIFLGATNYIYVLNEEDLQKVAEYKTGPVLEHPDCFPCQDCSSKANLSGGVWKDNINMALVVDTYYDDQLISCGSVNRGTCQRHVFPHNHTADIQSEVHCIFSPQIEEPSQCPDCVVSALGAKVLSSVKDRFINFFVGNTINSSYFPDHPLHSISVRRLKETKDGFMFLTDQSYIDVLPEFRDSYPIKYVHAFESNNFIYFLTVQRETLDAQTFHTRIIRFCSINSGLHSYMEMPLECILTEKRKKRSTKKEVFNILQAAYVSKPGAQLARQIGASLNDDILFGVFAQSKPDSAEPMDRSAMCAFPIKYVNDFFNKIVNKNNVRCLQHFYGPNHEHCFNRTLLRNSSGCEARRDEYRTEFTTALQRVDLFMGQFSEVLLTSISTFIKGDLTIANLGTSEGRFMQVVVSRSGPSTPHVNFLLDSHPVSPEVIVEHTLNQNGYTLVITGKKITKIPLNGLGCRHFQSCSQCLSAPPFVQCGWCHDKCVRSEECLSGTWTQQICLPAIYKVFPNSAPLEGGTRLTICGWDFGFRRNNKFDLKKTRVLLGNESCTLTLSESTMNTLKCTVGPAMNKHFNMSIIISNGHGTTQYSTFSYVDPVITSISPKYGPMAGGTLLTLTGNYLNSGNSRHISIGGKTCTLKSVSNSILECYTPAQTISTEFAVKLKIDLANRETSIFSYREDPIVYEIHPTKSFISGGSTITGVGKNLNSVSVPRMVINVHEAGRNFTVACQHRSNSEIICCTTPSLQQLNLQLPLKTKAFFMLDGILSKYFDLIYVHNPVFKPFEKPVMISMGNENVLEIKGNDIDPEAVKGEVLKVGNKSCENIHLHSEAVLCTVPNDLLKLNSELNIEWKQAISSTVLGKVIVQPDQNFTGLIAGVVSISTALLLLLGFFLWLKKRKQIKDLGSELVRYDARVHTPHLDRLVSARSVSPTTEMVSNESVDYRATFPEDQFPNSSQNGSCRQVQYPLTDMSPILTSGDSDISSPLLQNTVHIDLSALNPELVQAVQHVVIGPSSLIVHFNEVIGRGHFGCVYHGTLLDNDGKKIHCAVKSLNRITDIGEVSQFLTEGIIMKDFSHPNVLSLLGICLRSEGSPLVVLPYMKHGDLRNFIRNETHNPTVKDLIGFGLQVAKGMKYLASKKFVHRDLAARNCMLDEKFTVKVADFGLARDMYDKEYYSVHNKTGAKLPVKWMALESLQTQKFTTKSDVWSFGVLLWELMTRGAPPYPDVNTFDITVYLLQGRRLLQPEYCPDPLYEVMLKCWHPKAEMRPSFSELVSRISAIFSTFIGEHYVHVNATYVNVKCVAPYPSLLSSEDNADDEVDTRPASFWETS

One may read the IC50 as the concentration needed to halve the response being measured. A higher IC50 goes with lower potency. Take `CC(C)n1cc(C(=O)Nc2ccc(Oc3ccnc(N)c3C#CCN3CCNCC3)c(F)c2)c(=O)n(-c2ccc(F)cc2)c1=O` [Example 17]: the IC50 at MER, against AXL and at c-MET was less than 10 nM throughout.

`Cn1nc(C(=O)Nc2ccc(Oc3ccnc(N)c3C#CCC3CCNCC3)c(F)c2)c(=O)n(-c2ccc(F)cc2)c1=O` [Example 46, N-(4-((2-amino-3-(3-(piperidin-4-yl)prop-1-yn-1-yl)pyridin-4-yl)oxy)-3-fluorophenyl)-4-(4-fluorophenyl)-2-methyl-3,5-dioxo-2,3,4,5-tetrahydro-1,2,4-triazine-6-carboxamide]: the IC50 was less than 100 nM on MER, less than 10 nM against AXL and less than 100 nM on c-MET.

Regarding `Cc1nc(Cn2cc(C(=O)Nc3ccc(Oc4ccnc(N)c4C#CCC4CCNCC4)c(F)c3)c(=O)n(-c3ccc(F)cc3)c2=O)cs1` [Example 44, N-(4-((2-amino-3-(3-(piperidin-4-yl)prop-1-yn-1-yl)pyridin-4-yl)oxy)-3-fluorophenyl)-3-(4-fluorophenyl)-1-((2-methylthiazol-4-yl)methyl)-2,4-dioxo-1,2,3,4-tetrahydropyrimidine-5-carboxamide], the IC50 against MER, against AXL and against c-MET was less than 10 nM each time.

Regarding `CC(C)n1cc(C(=O)Nc2ccc(Oc3ccnc(N)c3C#N)c(F)c2)c(=O)n(-c2ccc(F)cc2)c1=O` [Example 5, N-(4-(2-amino-3-cyanopyridin-4-yloxy)-3-fluorophenyl)-3-(4-fluorophenyl)-1-isopropyl-2,4-dioxo-1,2,3,4-tetrahydropyrimidine-5-carboxamide], the half-inhibitory concentration (IC50) on MER, against AXL and on c-MET was less than 10 nM each time.

For `CC(C)(C#Cc1c(Oc2ccc(NC(=O)c3cn(C4CCOCC4)c(=O)n(-c4ccc(F)cc4)c3=O)cc2F)ccnc1N)N1CCOCC1` [Example 55, N-(4-(2-amino-3-(3-methyl-3-morpholinobut-1-ynyl)pyridin-4-yloxy)-3-fluorophenyl)-3-(4-fluorophenyl)-2,4-dioxo-1-(tetrahydro-2H-pyran-4-yl)-1,2,3,4-tetrahydropyrimidine-5-carboxamide], the IC50 at MER, on AXL and against c-MET was less than 100 nM in each case.

Regarding `CC(C)n1cc(C(=O)Nc2ccc(Oc3ccnc(N)c3/C=C/C(=O)N3CCNCC3)c(F)c2)c(=O)n(-c2ccc(F)cc2)c1=O` [Example 3, (E)-N-(4-(2-amino-3-(3-oxo-3-(piperazin-1-yl)prop-1-enyl)pyridin-4-yloxy)-3-fluorophenyl)-3-(4-fluorophenyl)-1-isopropyl-2,4-dioxo-1,2,3,4-tetrahydropyrimidine-5-carboxamide], the IC50 at MER is less than 10 nM; against AXL, less than 10 nM; at c-MET it was less than 100 nM.

With `CCCn1cc(-c2c(Oc3ccc(NC(=O)c4cn(C(C)C)c(=O)n(-c5ccc(F)cc5)c4=O)cc3F)ccnc2N)cn1` [Example 12, N-(4-(2-amino-3-(1-propyl-1H-pyrazol-4-yl)pyridine-4-yloxy)-3-fluorophenyl)-3-(4-fluorophenyl)-1-isopropyl-2,4-dioxo-1,2,3,4-tetrahydropyrimidine-5-carboxamide], the IC50 against MER was less than 1000 nM; on AXL, less than 1000 nM; at c-MET, less than 10000 nM.

For the compound `COCCN1CCC(CC#Cc2c(Oc3ccc(NC(=O)c4cn(C(C)C)c(=O)n(-c5ccc(F)cc5)c4=O)cc3F)ccnc2N)CC1` [Example 28, N-(4-(2-amino-3-(3-(1-(2-methoxyethyl)piperidin-4-yl)prop-1-ynyl)pyridin-4-yloxy)-3-fluorophenyl)-3-(4-fluorophenyl)-1-isopropyl-2,4-dioxo-1,2,3,4-tetrahydropyrimidine-5-carboxamide], the IC50 against MER, at AXL and on c-MET was less than 10 nM each time.
